Test results: ChEMBL document CHEMBL4130372, “The antitrypanosomal and antitubercular activity of some nitro(triazole/imidazole)-based aromatic amines” (Eur J Med Chem, 2017)
≈ marks a conversion by molar mass, not a printed value. Calls of active or inactive are those of the source. The calls are words filed in the database; no cut-off is given here.

Key:
[1] = tested on: Mycobacterium tuberculosis; experiment: Antitubercular activity against Mycobacterium tuberculosis RIF-R2 ATCC 35828 after 5 days by fluorescence-based assay; assay type: functional; settings: RIF-R2 ATCC 35828, 120 h
[2] = tested on: Mycobacterium tuberculosis; experiment: Antitubercular activity against Mycobacterium tuberculosis INH-R2 ATCC 35822 after 5 days by fluorescence-based assay; assay type: functional; settings: INH-R2 ATCC 35822, 120 h
[3] = tested on: Mycobacterium tuberculosis; experiment: Antitubercular activity against Mycobacterium tuberculosis H37Rv ATCC 27294 expressing […] infected in mouse J774 cells assessed as log reduction in intracellular bacterial burden at 30 uM after 4 days by luminescence assay; assay type: functional
[4] = tested on: Mycobacterium tuberculosis; experiment: Antitubercular activity against Mycobacterium tuberculosis H37Rv ATCC 27294 expressing […] infected in mouse J774 cells assessed as log reduction in intracellular bacterial burden at 0.6 uM after 4 days by luminescence assay; assay type: functional
[5] = tested on: Mycobacterium tuberculosis; experiment: Bactericidal activity against Mycobacterium tuberculosis H37Rv ATCC 27294 assessed as minimum concentration required to achieve a 2-log kill measured after 21 days under hypoxic conditions; assay type: functional; settings: H37Rv ATCC 27294, 504 h
Trypanosoma cruzi [6] = experiment: Potency index, ratio of benznidazole IC50 to compound IC50 for Trypanosoma cruzi Tulahuen C4; assay type: functional
[7] = tested on: Trypanosoma brucei rhodesiense; experiment: Antitrypanosomal activity against blood stream form of Trypanosoma brucei rhodesiense STIB900 trypomastigotes after 72 hrs by Alamar Blue assay; assay type: functional, organism-based; settings: STIB900, 72 h
[8] = Selectivity index, ratio of IC50 for rat L6 cells to IC50 for blood stream form of Trypanosoma brucei rhodesiense STIB900; assay type: toxicity; settings: read-out: Ratio IC50
[9] = Selectivity index, ratio of IC50 for rat L6 cells to IC50 for […] amastigotes infected in rat L6 cells; assay type: toxicity, cell-based; settings: read-out: Ratio IC50
[10] = tested on: Mycobacterium tuberculosis; experiment: Antitubercular activity against Mycobacterium tuberculosis H37Rv ATCC 27294 expressing luxABCDE operon incubated for 10 days under hypoxic conditions followed by incubation under aerobic conditions for 28 hrs by LORA method; assay type: functional, organism-based
[11] = tested on: Mycobacterium tuberculosis; experiment: Antitubercular activity against Mycobacterium tuberculosis H37Rv ATCC 27294 after 5 days measured under aerobic conditions by fluorescence-based assay; assay type: functional, organism-based; settings: H37Rv ATCC 27294, 120 h
[12] = Cytotoxicity against African green monkey Vero cells assessed as reduction in cell viability after 2 days by cell-titer-glo luminescent assay; assay type: cell-based; settings: chlorocebus sabaeus, read-out: TC50
[13] = tested on: Mycobacterium tuberculosis; experiment: Antitubercular activity against Mycobacterium tuberculosis H37Rv ATCC 27294 expressing […] infected in mouse J774 cells assessed as log reduction in intracellular bacterial burden at 20 uM after 4 days by luminescence assay; assay type: functional
[14] = Selectivity index, ratio of TC50 for African green monkey Vero cells to MIC for Mycobacterium tuberculosis H37Rv ATCC 27294 expressing luxABCDE operon; assay type: toxicity; settings: read-out: Selectivity Index
Trypanosoma cruzi [15] = experiment: Antitrypanosomal activity against Trypanosoma cruzi Tulahuen C4 amastigotes infected in rat L6 cells after 96 hrs by CPRG/nonidet-based inverted microscopic analysis; assay type: functional, organism-based; settings: Tulahuen C4, L6, 96 h
L6 = experiment: Cytotoxicity against rat L6 cells assessed as reduction in cell viability after 2 days by cell-titer-glo luminescent assay; assay type: cell-based; settings: L6, 48 h
[16] = tested on: Mycobacterium tuberculosis; experiment: Bactericidal activity against Mycobacterium tuberculosis H37Rv ATCC 27294 assessed as minimum concentration required to achieve a 2-log kill measured after 21 days; assay type: functional
[17] = tested on: Mycobacterium tuberculosis; experiment: Antitubercular activity against Mycobacterium tuberculosis H37Rv ATCC 27294 expressing luxABCDE operon at 100 uM incubated for 10 days under hypoxic conditions followed by incubation under aerobic conditions for 28 hrs by LORA method; assay type: functional
[18] = tested on: Mycobacterium tuberculosis; experiment: Antitubercular activity against Mycobacterium tuberculosis H37Rv ATCC 27294 expressing […] infected in mouse J774 cells assessed as log reduction in intracellular bacterial burden at 200 uM after 4 days by luminescence assay; assay type: functional

C[C@H]1COc2c(N3CCN(C)CC3)c(F)cc3c(=O)c(C(=O)O)cn1c23.C[C@H]1COc2c(N3CCN(C)CC3)c(F)cc3c(=O)c(C(=O)O)cn1c23.O [LEVOFLOXACIN]
MIC [1]: 1.4 µM | MIC [2]: 1.3 µM

NNC(=O)c1ccncc1 [ISONIAZID]
MIC [1]: 0.67 µM (≈ 0.0919 µg/mL) | log(activity) [3]: 2.6 | MIC [2]: > 200 µM | log(activity) [4]: 2.7

O=[N+]([O-])c1cn2c(n1)OC[C@@H](OCc1ccc(OC(F)(F)F)cc1)C2 [PRETOMANID]
MBC [5]: 17.8 to 35.7 µM (≈ 6.39 to 12.8 µg/mL)

Cl.O=[N+]([O-])c1ncn(CCCCNc2ccnc3cc(Cl)ccc23)n1
Ratio IC50 (Trypanosoma cruzi [6]): 9.6 | IC50 [7]: 0.193 µM | selectivity ratio [8]: 710 | selectivity ratio [9]: 979

Cc1ncc([N+](=O)[O-])n1CCO [METRONIDAZOLE]
IC50 [10]: 36 µM | IC90 [10]: 82 µM | MIC [10]: 200 µM (≈ 34.2 µg/mL) | IC50 [11]: > 200 µM | IC90 [11]: > 200 µM | MIC [11]: > 200 µM

O=[N+]([O-])c1nccn1CCCCNc1ccnc2c(Cl)cccc12
IC50 [10]: 0.15 µM | IC90 [10]: 0.84 µM | MIC [10]: 4.14 µM (≈ 1.43 µg/mL) | Ratio IC50 (Trypanosoma cruzi [6]): 1.1 | MIC [1]: > 200 µM | IC50 [7]: 1.27 µM | CC50 at 48 h [12]: 66 µM | log(activity) [13]: 1.5 | selectivity ratio [8]: 29 | selectivity ratio [14]: 16 | IC50 (Trypanosoma cruzi [15]): 2.04 µM | MIC [2]: > 200 µM | IC50 (L6): 36.2 µM | IC50 [11]: 41 µM | IC90 [11]: > 200 µM | MIC [11]: > 200 µM | selectivity ratio [9]: 18 | MBC [16]: inactive

Cl.O=[N+]([O-])c1nccn1CCCCNc1ccnc2cc(Cl)ccc12
Ratio IC50 (Trypanosoma cruzi [6]): 0.64 | IC50 [7]: 1.87 µM | CC50 at 48 h [12]: > 1680 µM | selectivity ratio [8]: 36 | MBC [5]: 12.8 to 25.7 µM | MIC [11]: > 128 µM | selectivity ratio [9]: 19

O=C(Cn1ccnc1[N+](=O)[O-])NCc1ccccc1 [BENZNIDAZOLE]
IC50 (Trypanosoma cruzi [15]): 2.24 µM

O=[N+]([O-])c1nccn1CCCCNc1ncnc2ccccc12
MIC [10]: 9.18 µM (≈ 2.87 µg/mL) | Ratio IC50 (Trypanosoma cruzi [6]): 0.96 | IC50 [7]: 2.58 µM | selectivity ratio [8]: 3.5 | IC50 (Trypanosoma cruzi [15]): 2.32 µM | IC50 (L6): 8.96 µM | IC50 [11]: > 200 µM | IC90 [11]: > 200 µM | MIC [11]: > 200 µM | selectivity ratio [9]: 3.9

O=[N+]([O-])c1nccn1CCCNc1ncnc2ccccc12
Ratio IC50 (Trypanosoma cruzi [6]): 1.11 | IC50 [7]: 13.2 µM | selectivity ratio [8]: 2.9 | IC50 (Trypanosoma cruzi [15]): 1.83 µM | IC50 (L6): 38.6 µM | selectivity ratio [9]: 21

CO[C@H]1/C=C/O[C@@]2(C)Oc3c(C)c(O)c4c(O)c(c(/C=N/N5CCN(C)CC5)c(O)c4c3C2=O)NC(=O)/C(C)=C\C=C\[C@H](C)[C@H](O)[C@@H](C)[C@@H](O)[C@@H](C)[C@H](OC(C)=O)[C@@H]1C [RIFAMPIN]
IC50 [10]: 0.00072 µM | IC90 [10]: 0.0037 µM | MIC [10]: 0.022 µM (≈ 0.0181 µg/mL) | MIC [1]: > 50 µM | MIC [2]: 0.011 µM (≈ 0.00905 µg/mL) | IC50 [11]: 0.0046 µM | IC90 [11]: 0.0049 µM | MIC [11]: 0.015 µM (≈ 0.0123 µg/mL)

O=[N+]([O-])c1ncn(CCCCNc2ncnc3ccccc23)n1
IC50 [10]: 11 µM | IC90 [10]: > 100 µM | MIC [10]: > 100 µM | Ratio IC50 (Trypanosoma cruzi [6]): 2.57 | Activity [17]: 76% | MIC [1]: > 200 µM | IC50 [7]: 0.39 µM | log(activity) [18]: 0.7 | CC50 at 48 h [12]: > 100 µM | selectivity ratio [8]: 88 | IC50 (Trypanosoma cruzi [15]): 0.872 µM | MIC [2]: > 200 µM | IC50 (L6): 34.4 µM | IC50 [11]: 51 µM | IC90 [11]: 140 µM | MIC [11]: 200 µM (≈ 62.7 µg/mL) | selectivity ratio [9]: 39 | MBC ([16]; H37Rv ATCC 27294, 504 h): 100 µM (≈ 31.3 µg/mL)

Cl.O=[N+]([O-])c1ncn(CCCNc2ccnc3cc(Cl)ccc23)n1
Ratio IC50 (Trypanosoma cruzi [6]): 2.2 | IC50 [7]: 0.309 µM

Clc1cccc2c(NCCCCn3cncn3)ccnc12
Ratio IC50 (Trypanosoma cruzi [6]): 0.05 | IC50 [7]: 13.5 µM | selectivity ratio [8]: 2.8 | IC50 (Trypanosoma cruzi [15]): 48.6 µM | IC50 (L6): 37.7 µM | selectivity ratio [9]: 0.8

Cl.O=[N+]([O-])c1nccn1CCCNc1ccnc2cc(Cl)ccc12
Ratio IC50 (Trypanosoma cruzi [6]): 2.15 | IC50 [7]: 1.4 µM | CC50 at 48 h [12]: 399 µM | selectivity ratio [8]: 18 | MBC [5]: 8.4 to 50 µM | MIC [11]: > 128 µM | selectivity ratio [9]: 24

O=[N+]([O-])c1nccn1CCCNc1ccnc2c(Cl)cccc12
MIC [10]: 2.89 µM (≈ 0.959 µg/mL) | Ratio IC50 (Trypanosoma cruzi [6]): 2.02 | IC50 [7]: 1.29 µM | selectivity ratio [8]: 83 | IC50 (Trypanosoma cruzi [15]): 1.11 µM | IC50 (L6): 107 µM | IC50 [11]: > 200 µM | IC90 [11]: > 200 µM | MIC [11]: > 200 µM | selectivity ratio [9]: 97

O=[N+]([O-])c1ncn(CCCCNc2ccnc3c(Cl)cccc23)n1
MIC [10]: > 100 µM | Ratio IC50 (Trypanosoma cruzi [6]): 3.9 | Activity [17]: 82% | IC50 [7]: 0.038 µM | selectivity ratio [8]: 1940 | IC50 (Trypanosoma cruzi [15]): 0.574 µM | IC50 (L6): 73.6 µM | IC50 [11]: > 200 µM | IC90 [11]: > 200 µM | MIC [11]: > 200 µM | selectivity ratio [9]: 128
